{
  "source": "patent US12246007B2",
  "about": "“Liquid bendamustine pharmaceutical compositions” (HOSPIRA AUSTRALIA PTY LTD, priority 2018, dated 2025)",
  "experiment": "Solubility of bendamustine HCl in organic solvents (T0 assay after overnight rolling and filtration)",
  "format": "physicochemical",
  "procedure": "An initial study was performed to assess bendamustine HCl solubility and brief stability in various organic solvents. Amounts of approximately 415.4 mg bendamustine HCl API (active pharmaceutical ingredient) were weighed into 4 mL amber glass vials. 2 mL of each indicated test solvent was added to two of each of the vials. One of each set of two vials containing the same solvent was placed on a sample roller at 2-8° C., and the other vial in each set was placed on a sample roller at laboratory temperature overnight. The following day, the solution from each vial was filtered through a Pall, 0.2 μm Fluorodyne II (Hydrophilic modified PVDF) syringe filter into a fresh 4 mL amber glass vial.",
  "note": "Where a name gives a salt, the structure may show the parent alone. Read-outs that look alike come from different tables or passages of the source.",
  "data": [
    {"compound": "Cn1c(CCCC(=O)O)nc2cc(N(CCCl)CCCl)ccc21", "note": "[Bendamustine HCl, 1H-benzimidazole-2-butanoic acid, 5-[bis(2-chloroethyl)amino]-1-methyl, monohydrochloride]", "values": [
      {"measurement": "solubility", "setting": "2 °C, organic solvent or mixture, thermodynamic from solid, 1-methyl-2-pyrrolidinone, 2-8° C., read-out: Solubility", "result": 181, "unit": "mg/mL"},
      {"measurement": "solubility", "setting": "2 °C, organic solvent or mixture, thermodynamic from solid, Absolute Ethanol, 2-8° C., read-out: Solubility", "result": 52.1, "unit": "mg/mL"},
      {"measurement": "solubility", "setting": "2 °C, organic solvent or mixture, thermodynamic from solid, Benzyl alcohol, 2-8° C., read-out: Solubility", "result": 177, "unit": "mg/mL"},
      {"measurement": "solubility", "setting": "2 °C, organic solvent or mixture, thermodynamic from solid, Dimethyl acetamide (EP)-Finar, 2-8° C., read-out: Solubility", "result": 180, "unit": "mg/mL"},
      {"measurement": "solubility", "setting": "2 °C, organic solvent or mixture, thermodynamic from solid, Dimethyl acetamide (EP)-Panreac, 2-8° C., read-out: Solubility", "result": 182, "unit": "mg/mL"},
      {"measurement": "solubility", "setting": "2 °C, organic solvent or mixture, thermodynamic from solid, Dimethyl acetamide (high purity)-Finar, 2-8° C., read-out: Solubility", "result": 178, "unit": "mg/mL"},
      {"measurement": "solubility", "setting": "2 °C, organic solvent or mixture, thermodynamic from solid, Dimethyl sulfoxide, 2-8° C., read-out: Solubility", "result": 182, "unit": "mg/mL"},
      {"measurement": "solubility", "setting": "2 °C, organic solvent or mixture, thermodynamic from solid, PEG 300, 2-8° C., read-out: Solubility", "result": 60.2, "unit": "mg/mL"},
      {"measurement": "solubility", "setting": "2 °C, organic solvent or mixture, thermodynamic from solid, PEG 400, 2-8° C., read-out: Solubility", "result": 32.8, "unit": "mg/mL"},
      {"measurement": "solubility", "setting": "2 °C, organic solvent or mixture, thermodynamic from solid, Propylene glycol (USP)-Croda, 2-8° C., read-out: Solubility", "result": 154, "unit": "mg/mL"},
      {"measurement": "solubility", "setting": "2 °C, organic solvent or mixture, thermodynamic from solid, Propylene glycol (USP)-Dow, 2-8° C., read-out: Solubility", "result": 154, "unit": "mg/mL"},
      {"measurement": "solubility", "setting": "2 °C, organic solvent or mixture, thermodynamic from solid, Propylene glycol (USP)-Merck, 2-8° C., read-out: Solubility", "result": 159, "unit": "mg/mL"},
      {"measurement": "solubility", "setting": "2 °C, organic solvent or mixture, thermodynamic from solid, Propylene glycol, 2-8° C., read-out: bendamustine HCl solubility", "result": "~155", "unit": "mg/mL"},
      {"measurement": "solubility", "setting": "Isopropyl alcohol, 2-8° C.", "result": 4.5, "unit": "mg/mL"},
      {"measurement": "solubility", "setting": "PEG 300, organic solvent or mixture, thermodynamic from solid, read-out: bendamustine HCl solubility", "result": "~60", "unit": "mg/mL"},
      {"measurement": "solubility", "setting": "PEG 400, organic solvent or mixture, thermodynamic from solid, read-out: bendamustine HCl solubility", "result": "~30", "unit": "mg/mL"},
      {"measurement": "solubility", "setting": "Propylene glycol (USP)-Croda, 23° C.", "result": 170.3, "unit": "mg/mL"},
      {"measurement": "solubility", "setting": "ethanol, organic solvent or mixture, thermodynamic from solid, read-out: bendamustine HCl solubility", "result": "50 to 60", "unit": "mg/mL"},
      {"measurement": "solubility", "setting": "isopropyl alcohol, organic solvent or mixture, thermodynamic from solid, read-out: bendamustine HCl solubility", "result": "~5", "unit": "mg/mL"},
      {"measurement": "solubility", "setting": "organic solvent or mixture, thermodynamic from solid, 1-methyl-2-pyrrolidinone, 23° C., read-out: Solubility", "result": 180, "unit": "mg/mL"},
      {"measurement": "solubility", "setting": "organic solvent or mixture, thermodynamic from solid, 1-methyl-2-pyrrolidinone, both temperatures tested, API completely dissolved, read-out: bendamustine HCl solubility", "result": "> 180", "unit": "mg/mL"},
      {"measurement": "solubility", "setting": "organic solvent or mixture, thermodynamic from solid, Absolute Ethanol, 23° C., read-out: Solubility", "result": 61.1, "unit": "mg/mL"},
      {"measurement": "solubility", "setting": "organic solvent or mixture, thermodynamic from solid, Benzyl alcohol, 23° C., read-out: Solubility", "result": 174, "unit": "mg/mL"},
      {"measurement": "solubility", "setting": "organic solvent or mixture, thermodynamic from solid, Benzyl alcohol, both temperatures tested, API completely dissolved, read-out: bendamustine HCl solubility", "result": "> 180", "unit": "mg/mL"},
      {"measurement": "solubility", "setting": "organic solvent or mixture, thermodynamic from solid, Dimethyl acetamide (EP)-Finar, 23° C., read-out: Solubility", "result": 174, "unit": "mg/mL"},
      {"measurement": "solubility", "setting": "organic solvent or mixture, thermodynamic from solid, Dimethyl acetamide (EP)-Panreac, 23° C., read-out: Solubility", "result": 180, "unit": "mg/mL"},
      {"measurement": "solubility", "setting": "organic solvent or mixture, thermodynamic from solid, Dimethyl acetamide (high purity)-Finar, 23° C., read-out: Solubility", "result": 179, "unit": "mg/mL"},
      {"measurement": "solubility", "setting": "organic solvent or mixture, thermodynamic from solid, Dimethyl sulfoxide, 23° C., read-out: Solubility", "result": 181, "unit": "mg/mL"},
      {"measurement": "solubility", "setting": "organic solvent or mixture, thermodynamic from solid, Isopropyl alcohol, 23° C., read-out: Solubility", "result": 6.7, "unit": "mg/mL"},
      {"measurement": "solubility", "setting": "organic solvent or mixture, thermodynamic from solid, PEG 300, 23° C., read-out: Solubility", "result": 64.5, "unit": "mg/mL"},
      {"measurement": "solubility", "setting": "organic solvent or mixture, thermodynamic from solid, PEG 400, 23° C., read-out: Solubility", "result": 34.4, "unit": "mg/mL"},
      {"measurement": "solubility", "setting": "organic solvent or mixture, thermodynamic from solid, Propylene glycol (USP)-Dow, 23° C., read-out: Solubility", "result": 166, "unit": "mg/mL"},
      {"measurement": "solubility", "setting": "organic solvent or mixture, thermodynamic from solid, Propylene glycol (USP)-Merck, 23° C., read-out: Solubility", "result": 172, "unit": "mg/mL"},
      {"measurement": "solubility", "setting": "organic solvent or mixture, thermodynamic from solid, Propylene glycol, 23° C., read-out: bendamustine HCl solubility", "result": "~170", "unit": "mg/mL"},
      {"measurement": "solubility", "setting": "organic solvent or mixture, thermodynamic from solid, dimethyl acetamide, both temperatures tested, API completely dissolved, read-out: bendamustine HCl solubility", "result": "> 180", "unit": "mg/mL"},
      {"measurement": "solubility", "setting": "organic solvent or mixture, thermodynamic from solid, dimethyl sulfoxide, both temperatures tested, API completely dissolved, read-out: bendamustine HCl solubility", "result": "> 180", "unit": "mg/mL"}
    ]}
  ]
}
